Reference: EP3035931B1, “COMPOSITION FOR REDUCING NERVOUS SYSTEM INJURY AND METHOD OF MAKING AND USE THEREOF” (Morehouse School of Medicine, priority 2013, dated 2015)

Legend:
ASICs = molecular target: T1, ASICs (Mus musculus, UniProt Q6NXK8); assay type: cell-based; settings: cultured mouse cortical neurons; n=8; read-out: IC50, dose-dependent blockade of ASIC currents
T1 sequence (Q6NXK8 1-526): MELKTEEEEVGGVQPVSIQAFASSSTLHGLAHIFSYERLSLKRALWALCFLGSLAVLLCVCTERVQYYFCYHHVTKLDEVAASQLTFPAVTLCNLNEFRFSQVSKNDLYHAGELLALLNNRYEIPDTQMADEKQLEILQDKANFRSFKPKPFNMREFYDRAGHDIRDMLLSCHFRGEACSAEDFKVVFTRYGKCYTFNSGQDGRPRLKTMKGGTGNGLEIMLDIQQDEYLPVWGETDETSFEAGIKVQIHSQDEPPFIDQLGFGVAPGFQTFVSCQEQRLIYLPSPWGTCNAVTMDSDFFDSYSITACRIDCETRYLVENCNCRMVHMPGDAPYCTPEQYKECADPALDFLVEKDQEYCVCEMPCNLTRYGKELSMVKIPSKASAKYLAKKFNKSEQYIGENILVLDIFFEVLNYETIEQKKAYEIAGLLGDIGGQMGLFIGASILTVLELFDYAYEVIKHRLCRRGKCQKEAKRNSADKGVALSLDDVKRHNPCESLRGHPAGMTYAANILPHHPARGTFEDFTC
T1 sequence (Q925H0 1-512 partner): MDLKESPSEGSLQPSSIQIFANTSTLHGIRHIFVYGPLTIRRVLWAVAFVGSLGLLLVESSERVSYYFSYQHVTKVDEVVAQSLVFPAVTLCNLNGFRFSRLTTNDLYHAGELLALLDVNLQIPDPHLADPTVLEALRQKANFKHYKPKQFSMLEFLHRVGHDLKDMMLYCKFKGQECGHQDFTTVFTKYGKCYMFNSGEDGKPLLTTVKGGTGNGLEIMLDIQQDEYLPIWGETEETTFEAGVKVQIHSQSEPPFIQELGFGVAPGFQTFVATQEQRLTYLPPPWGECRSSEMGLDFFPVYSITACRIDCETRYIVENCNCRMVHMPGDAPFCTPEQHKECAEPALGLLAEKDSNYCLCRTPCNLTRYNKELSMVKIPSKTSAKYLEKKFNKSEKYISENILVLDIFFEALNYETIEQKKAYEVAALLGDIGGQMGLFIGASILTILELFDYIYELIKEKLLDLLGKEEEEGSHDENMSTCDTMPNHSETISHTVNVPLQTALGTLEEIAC

ASIC1a = molecular target: T2, ASIC1a (Homo sapiens, UniProt P78348); test: Blockade of ASIC 1a current expressed in CHO cells; assay type: cell-based; design: expressed in transfected cells; host or cells: CHO; settings: CHO cells, FIG. 16
T2 sequence (P78348 1-528): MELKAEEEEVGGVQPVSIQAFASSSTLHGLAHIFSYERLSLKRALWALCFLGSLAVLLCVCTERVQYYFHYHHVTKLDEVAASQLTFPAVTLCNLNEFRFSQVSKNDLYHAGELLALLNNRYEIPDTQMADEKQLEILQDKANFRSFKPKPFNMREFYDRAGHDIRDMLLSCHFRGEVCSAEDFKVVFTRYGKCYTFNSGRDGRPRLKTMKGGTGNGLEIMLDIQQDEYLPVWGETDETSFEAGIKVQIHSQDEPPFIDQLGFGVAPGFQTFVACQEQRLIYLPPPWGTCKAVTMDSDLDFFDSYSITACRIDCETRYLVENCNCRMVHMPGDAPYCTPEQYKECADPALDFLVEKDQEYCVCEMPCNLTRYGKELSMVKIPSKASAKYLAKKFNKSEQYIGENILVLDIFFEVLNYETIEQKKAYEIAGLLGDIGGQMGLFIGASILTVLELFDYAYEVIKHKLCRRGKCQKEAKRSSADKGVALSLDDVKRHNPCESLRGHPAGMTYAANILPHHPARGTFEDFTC

N=C(N)NC(=O)c1nc(Cl)c(N)nc1N [amiloride]
IC50 (ASICs): 16.4 ± 4.1 µM
block of ASIC1a current (ASIC1a): dose-dependent
